{"source": "patent US9314444B2", "about": "“Composition and method for treatment of NASH” (BioKier Inc., priority 2009, dated 2016)", "key": {"GLP-1": {"tested_on": "GLP-1", "test": "Colon delivered L-glutamine, GLP-1 secretion in human diabetic subjects", "type": "in vivo"}, "L-cells in the colon": {"tested_on": "L-cells in the colon", "conditions": "dosed orally and unformulated; cited from earlier work"}, "[1]": {"tested_on": "cell lines derived from L-cells", "conditions": "cited from earlier work"}, "GLP-1 and PYY": {"tested_on": "GLP-1 and PYY", "test": "Direct colonic delivery, secretion of gut hormones from the colon", "type": "in vivo", "conditions": "upper gut bypassed"}, "rat liver": {"tested_on": "rat liver", "conditions": "butyrate formed from carbohydrates via fermentation in the rat colon; cited from earlier work"}}, "data": [{"smiles": "NC(=O)CC[C@H](N)C(=O)O", "note": "[L-glutamine]", "values": [{"measurement": "secretion of GLP-1", "setting": "GLP-1", "result": "increased"}, {"measurement": "minimum effective amount", "setting": "L-cells in the colon", "result": 30, "unit": "grams"}, {"measurement": "toxic dose", "setting": "L-cells in the colon", "result": "≥ 30", "unit": "grams"}, {"measurement": "secretion of gut hormones", "setting": "[1]", "result": "induce secretion"}, {"measurement": "secretion of GLP-1 from the colon", "setting": "GLP-1 and PYY", "result": "increase"}, {"measurement": "secretion of PYY from the colon", "setting": "GLP-1 and PYY", "result": "increase"}]}, {"smiles": "CCCC(=O)O", "note": "[butyric acid]", "values": [{"measurement": "fat in the rat liver", "setting": "rat liver", "result": "reduces"}, {"measurement": "minimum effective amount", "setting": "L-cells in the colon", "result": 30, "unit": "grams"}, {"measurement": "secretion of gut hormones", "setting": "[1]", "result": "induce secretion"}, {"measurement": "secretion of GLP-1 from the colon", "setting": "GLP-1 and PYY", "result": "increase"}, {"measurement": "secretion of PYY from the colon", "setting": "GLP-1 and PYY", "result": "increase"}]}, {"smiles": "CCC(=O)O", "note": "[propionic acid]", "values": [{"measurement": "minimum effective amount", "setting": "L-cells in the colon", "result": 30, "unit": "grams"}, {"measurement": "secretion of gut hormones", "setting": "[1]", "result": "induce secretion"}, {"measurement": "secretion of GLP-1 from the colon", "setting": "GLP-1 and PYY", "result": "increase"}, {"measurement": "secretion of PYY from the colon", "setting": "GLP-1 and PYY", "result": "increase"}]}]}
